In assay [1] the test system is ISG54 promoter activity in HEK293T cells. The assay is described as follows: ISG54 promoter luciferase reporter in HEK293T cells. The assay is classed as cell-based, human. As to the method: FIG. 5. BRD4 is required for ISG transcription. (A) HeLa cells were either left untreated or treated with IFN-α for 1 h in presence or absence of JQ-1 or HMBA. Using primers spanning intron-exon junctions, nuclear pre-mRNA for ISG54 and γ-actin were quantified by real-time RT-PCR and normalized to GAPDH mRNA. (B) Control and BRD4 KD cells were either left untreated or treated with IFN-α. ISG56 and BRD4 mRNA were quantified using real-time RT-PCR and normalized to GAPDH mRNA abundance. (C) HEK293T cells were transfected with pcDNA3 (Ctl) or Brd4 expression constructs along with a luciferase reporter driven by the ISG54 promoter. […] Nuclear proteins were extracted as a soluble fraction and a chromatin bound fraction and analyzed by western blotting using anti-BRD4, H4-AcK5 and actin antibodies. […] (F) ChIP assays were performed with antibodies against BRD4 and recovered ISG56, Mx1 and IRF9 TSS spanning sequences were quantified by real-time PCR, normalized to input, and represented as fold enrichment over the untreated sample.
It has been shown that BRD4 coordinates the recruitment of P-TEFb to regulate transcription of target genes, including ISGs. […] In order to focus on transcriptional events, we again monitored induction of ISG unspliced pre-mRNA. […]
Nuclear extracts were prepared and analyzed by immunoblotting as follows. […]

The test system of assay [2] is ISG54 promoter nucleosomes in FS2 human diploid fibroblasts. The assay is described as follows: MNase-PCR nucleosome mapping of the ISG54 promoter in FS2 fibroblasts. The class given is cell-based. From the text:
FIG. 2. […] (A) Nuclear extracts from HEK293T cells expressing activated recombinant ISGF3 (STAT1, STAT2, IRF9 and JAK1) or transfected with vector (Ctl) were programmed with G6TI-CAT (G6TI) or p107 (ISG54) templates. Radiolabeled RNA transcripts were resolved by polyacrylamide-urea gel electrophoresis. Arrow and arrowhead indicate position of the transcripts from G6TI-CAT and p107, respectively. (B) HeLa cells were either left untreated or treated with IFN-α in the absence or presence of TSA (TSA in vivo) before nuclei were isolated for run-on transcription. Where indicated, TSA was added to the elongation reaction in vitro (TSA in vitro). Specific signals from γ-actin, ISG15, ISG56, 6-16, 9-27, IRF9 and GBP transcription were quantified following filter hybridization and normalized to the signal for GAPDH, arbitrarily set to 100. Representative data from three independent experiments are shown. FS2 human diploid fibroblasts were starved for 72 h before being treated with IFN-α for 7.5 h in the absence or presence of TSA. Mononucleosomal DNA fraction was purified from MNase-digested nuclei and analyzed for nucleosome positions by PCR quantitation of protected fragments. All samples were quantified by real-time PCR, except the—53—+1 ISG54 fragment, which was quantified by gel electrophoresis (C). […]

With `CC(/C=C/C(=O)NO)=C\[C@@H](C)C(=O)c1ccc(N(C)C)cc1` [TSA, Trichostatin A], in assay [1] (HEK293T cells), the “IFN-driven ISG54 promoter activity (luciferase)” value was “completely suppressed”. For the same compound, the “Brd4-driven ISG54 promoter expression (luciferase)” value in assay [1] (HEK293T cells overexpressing Brd4, with or without TSA and IFN) is “No significant differences”. For the same compound, in assay [2] (MNase), the “nuclease sensitivity of segments around TATA box and initiation site” value is reported as “minimally affected”. For the same compound, the “IFN-induced increase of nuclease sensitivity of −92 to −33 ISRE segment” value in assay [2] (co-treatment with IFN) was “not prevented”.

For the origin of these results see patent US20190351012A1, “TARGETING OF INTERFERON-STIMULATED GENE EXPRESSION TO TREAT INTERFERONOPATHIES” (New York University, priority 2018, published 2019).
